# Assay results: US20040018193A1 (priority 2002, published 2004)
# B1: IFN-γ: cytokine interferon-gamma (protein, UniProt P01579 24-161, looked up)
# Interferon gamma: QDPYVKEAENLKKYFNAGHSDVADNGTLFLGILKNWKEESDRKIMQSQIVSFYFKLFKNFKDDQSIQKSVETIKEDMNVKFFNSNKKKRDDFEKLTNYSVTDLNVQRKAIHELIQVMAELSPAAKTGKRKRSQMLFRG
# Key:
# Colon-26 cells = system: Colon-26 cells; design: species or system Balb/c mice; details: mouse, in vivo
# VEE virus [1] = system: VEE virus; design: species or system mice; details: mouse, in vivo
# VEE virus [2] = system: VEE virus; design: species or system mice; details: mouse, in vivo; remark: listed apart in the source
# human neutrophils [3] = type: cell-based; details: cytokine-treated neutrophils; donor-dependent; FIGS. 10 and 11
# B. anthracis (Sterne) = system: B. anthracis (Sterne); design: species or system A/J mice; details: mouse, in vivo; for mice still alive: ip
# human neutrophils [4] = type: cell-based; details: for IL-8 production by neutrophils: cytokine-stimulated, FIG. 12
# [5] = system: Vaccinia virus (strain WR); design: species or system Balb/C mice; details: mouse, in vivo
# [6] = system: primary murine splenocytes; design: species or system Balb/c mice; details: mouse, in vivo
# [7] = system: murine macrophages (RAW 264.7); type: cell-based
# vaccinia virus [8] = type: cell-based
# [9] = system: Bacillus anthracis Sterne strain; design: species or system DBA/2 mice; details: mouse, in vivo
# [10] = system: murine peritoneal exudate cells; design: species or system Balb/c mice; details: mouse, in vivo
# vaccinia virus [11] = type: in vivo
# murine PECs = type: cell-based, BALB/c mice
molecule,measurement,setting,value
IL-12: cytokine,cytolysis by NK/NKT cells,Colon-26 cells,significant increases
same,survival of lethally VEE-infected mice,VEE virus [1],"increased survival, but not significantly"
same,reduction of VEE titers in the lungs compared to control animals,VEE virus [2],~1.5 log10
same,superoxide anion levels,human neutrophils [3],increased superoxide anion levels
same,survival,B. anthracis (Sterne),increased survival
platelet activating factor [PAF],GM-CSF-induced IL-8 production,"human neutrophils [4]; PAF added to GM-CSF, FIG. 13",enhances
same,IL-8 production by neutrophils,human neutrophils [4],increased IL-8 production moderately
IFN-α,mice remained alive,[5],95%
same,mice still alive,[5],95%
GM-CSF,CD25 marker expression,[6],significant activation
same,superoxide anion levels,human neutrophils [3],increased superoxide anion levels
same,IL-8 production by neutrophils,human neutrophils [4],significantly increased
same,survival,B. anthracis (Sterne),increased survival
same,mice still alive,B. anthracis (Sterne),25%
"CC(=O)O.CNC(=N)NCCC[C@H](N)C(=O)O [L-NMA, N^G-monomethyl-L-arginine acetate, reference compound]",NO production,[7],inhibit NO production
same,VV replication,vaccinia virus [8],restored VV replication
IL-8: cytokine,superoxide anion levels,human neutrophils [3],increased superoxide anion levels
O=C(O)c1cn(C2CC2)c2cc(N3CCNCC3)c(F)cc2c1=O [ciprofloxacin],survival,[9],40%
B1,nitric oxide production,[7],increased nitric oxide production dramatically
same,effect of cytokine on cell wall-enhanced vaccinia virus clearance,vaccinia virus [8],possible weak synergetic effect
same,plaque forming units relative to cell wall treatment,vaccinia virus [8],reduced the number of plaque forming units even further
same,reduction in VV titer,vaccinia virus [8],95%
same,cytolysis by NK/NKT cells,Colon-26 cells,moderate increases
same,nitric oxide production by PECs,[10],significant increases
same,vaccinia virus-induced cytopathic effect,vaccinia virus [11],appeared to be reduced
same,survival of lethally VEE-infected mice,VEE virus [1],increased survival
same,reduction of VEE titers in the lungs compared to control animals,VEE virus [2],~0.5 log10
same,superoxide anion levels,human neutrophils [3],increased superoxide anion levels
same,survival,B. anthracis (Sterne),increased survival
same,mice still alive,B. anthracis (Sterne),10%
same,mice remained alive,[5],100%
same,mice still alive,[5],100%
same,protection against lethal VV (strain WR) challenge,[5],complete protection
same,increase of cell wall-induced nitric oxide production,murine PECs,10 to 20 µM
